Measurements from patent publication US9549917B2, “Heterocyclic-substituted benzofuran derivatives and methods of use thereof for the treatment of viral diseases” (priority 2011, dated 2017).

Columns and labels:
[1] = system: HCV replicon genotype 1a; test: HCV replicon assay, genotype 1a (cell ELISA for NS3/4A); format: cell-based; details: Hepatitis C virus, 96 h, read-out: 1a IC50 (nM)
Description: (§1) Measurement of inhibition by compounds was performed using the HCV replicon system. Several different replicons encoding different HCV genotypes or mutations were used. In addition, potency measurements were made using different formats of the replicon assay, including different ways of measurements and different plating formats. See Jan M. Vrolijk et al., A replicons-based bioassay for the measurement of interferons in patients with chronic hepatitis C, 110 J. V[…] 201 (2003); Steven S. Carroll et al., Inhibition of Hepatitis C Virus RNA Replication by 2′-Modified Nucleoside Analogs, 278(14) J. BIOLOGICAL CHEMISTRY 11979 (2003). However, the underlying principles are common to all of these determinations, and are outlined below.
(§2) Stable neomycin phosphotransferase encoding replicons-harboring cell lines were used, so all cell lines were maintained under G418 selection prior to the assay. Potency was determined using a cell ELISA assay with an antibody to the replicons encoded NS3/4a protease. See Caterina Trozzi et al., In Vitro Selection and Characterization of Hepatitis C Virus Serine Protease Variants Resistant to an Active-Site Peptide Inhibitor, 77(6) J. Virol. 3669 (2003). To initiate an assay, replicon cells were plated in the presence of a dilution series of test compound in the absence of G418. Typically, the assays were performed in a 96-well plate formate for manual operation, or a 384-well plate format for automated assay. Replicon cells and compound were incubated for 96 hours. At the end of the assay, cells were washed free of media and compound, and the cells were then lysed. RNA was quantified indirectly through detection of replicon-encoded NS3/4A protein levels, through an ELISA-based assay with an antibody specific for NS3/4A. IC50 determinations were calculated as a percentage of a DMSO control by fitting the data to a four-parameter fit function and the data obtained is provided in the table below.
(§3) Data for selected compounds of the present invention was obtained for genotypes 1a and 1b using this method and is provided in the table below: […]

[2] = system: HCV replicon genotype 1b; test: HCV replicon assay, genotype 1b (cell ELISA for NS3/4A); format: cell-based; details: Hepatitis C virus, 96 h, read-out: 1b IC50 (nM)
Description: as §1, §2, §3

| SMILES | IC50 [1] [nM] | IC50 [2] [nM] |
| --- | --- | --- |
| CNC(=O)c1c(-c2ccc(F)cc2)oc2cc(N(C)S(C)(=O)=O)c(-c3nnc(-c4cc5c(F)cccc5[nH]4)o3)cc12 [Compound 256, 5-(5-(4-fluoro-1H-indol-2-yl)-1,3,4-oxadiazol-2-yl)-2-(4-fluorophenyl)-N-methyl-6-(N-methylmethylsulfonamido)benzofuran-3-carboxamide] | 0.4 | 0.7 |
| CNC(=O)c1c(-c2ccc(F)cc2)oc2cc(N(C)S(C)(=O)=O)c(-c3ccc(O)c(C4Cc5c(F)cccc5N4)n3)cc12 (stereo not drawn) [Compound 257, 5-(6-(4-fluoroindolin-2-yl)-5-hydroxypyridin-2-yl)-2-(4-fluorophenyl)-N-methyl-6-(N-methylmethylsulfonamido)benzofuran-3-carboxamide] | 13 | 10 |
| CNC(=O)c1c(-c2ccc(F)cc2)oc2cc(N(C)S(C)(=O)=O)c(-c3nc(-c4cc5c(F)cccc5[nH]4)ns3)cc12 [Compound 258] | 2.6 | 2.5 |
| CNC(=O)c1c(-c2ccc(F)cc2)oc2cc(N(C)S(C)(=O)=O)c(-c3cnnc(-c4cc5c(F)cccc5[nH]4)c3)cc12 [Compound 259] | 1.1 | 2.6 |
| CNC(=O)c1c(-c2ccc(F)cc2)oc2cc(N(C)S(C)(=O)=O)c(-c3cnnc(-c4cc5c(C#N)cccc5[nH]4)c3)cc12 [Compound 260] | 0.7 | 1.1 |
| CNC(=O)c1c(-c2ccc(F)cc2)oc2cc(N(C)S(C)(=O)=O)c(-c3cc(-c4cc5c(F)cccc5[nH]4)cnn3)cc12 [Compound 263] | 3.2 | 2.4 |
| CNC(=O)c1c(-c2ccc(F)cc2)oc2cc(N(C)S(C)(=O)=O)c(-c3cnnc(-n4ncc5c(F)cccc54)c3)cc12 [Compound 264] | 25 | 10 |
| CNC(=O)c1c(-c2ccc(F)cc2)oc2cc(N(C)S(C)(=O)=O)c(-c3cnnc(-n4cc5c(F)cccc5n4)c3)cc12 [Compound 265] | 4.5 | 4.1 |
| CNC(=O)c1c(-c2ccc(F)cc2)oc2cc(N(C)S(C)(=O)=O)c(-c3cc(-c4cc5c(C#N)cccc5[nH]4)nnc3C)cc12 [Compound 266] | 3.2 | 3 |
| CNC(=O)c1c(-c2ccc(F)cc2)oc2cc(N(C)S(C)(=O)=O)c(-c3cc(-c4cc5c(F)cccc5[nH]4)nnc3C)cc12 [Compound 268] | 5.3 | 6.1 |
| CNC(=O)c1c(-c2ccc(F)cc2)oc2ccc(-c3cc(-c4cc5c(F)cccc5[nH]4)nnc3C)cc12 [Compound 270] | 42 | 36 |
| CNC(=O)c1c(-c2ccc(F)cc2)oc2cc(N(C)S(C)(=O)=O)c(-c3cc(-c4nc5ccccc5o4)cnn3)cc12 [Compound 271] | 14 | 10 |
| CNC(=O)c1c(-c2ccc(F)cc2)oc2cc(N(C)S(C)(=O)=O)c(-c3cc(-c4cc5c(F)cccc5[nH]4)nc(N)n3)cc12 [Compound 272] | 4.2 | 4.4 |
| CNC(=O)c1c(-c2ccc(F)cc2)oc2cc(N(C)S(C)(=O)=O)c(-c3cnnc(-c4cc5c(C#N)cccc5n4C)c3)cc12 [Compound 273] | 0.3 | 0.2 |
| CNC(=O)c1c(-c2ccc(F)cc2)oc2cc(N(C)S(C)(=O)=O)c(-c3cnnc(-c4cc5c(F)cccc5n4CCO)c3)cc12 [Compound 277] | 7.4 | 6.7 |
| CNC(=O)c1c(-c2ccc(F)cc2)oc2cc(N(C)S(C)(=O)=O)c(-c3cc(-c4cc5c(F)cccc5n4CCOC)cnn3)cc12 [Compound 278] | 37 | 14 |
| CNC(=O)c1c(-c2ccc(F)cc2)oc2cc(N(C)S(C)(=O)=O)c(-c3cnnc(-c4cc5c(F)cccc5n4CCOC)c3)cc12 [Compound 279] | 2.5 | 3.2 |
| CNC(=O)c1c(-c2ccc(F)cc2)oc2cc(N(C)S(C)(=O)=O)c(-c3cnnc(N4Cc5cccc(F)c5C4)c3)cc12 [Compound 280] | 1.2 | 1.4 |
| CNC(=O)c1c(-c2ccc(F)cc2)oc2cc(N(C)S(C)(=O)=O)c(-c3cnnc(N4Cc5c(F)cccc5C4=O)c3)cc12 [Compound 281] | 22.3 | 4.8 |
| CNC(=O)c1c(-c2ccc(F)cc2)oc2cc(N(C)S(C)(=O)=O)c(-c3cnnc(-c4cc5c(OC)cccc5[nH]4)c3)cc12 [Compound 282] | 3.3 | 1.8 |
| CNC(=O)c1c(-c2ccc(F)cc2)oc2cc(N(C)S(C)(=O)=O)c(-c3cnnc(-c4cc5cccnc5n4C)c3)cc12 [Compound 284] | 6 | 2.7 |
| CNC(=O)c1c(-c2ccc(F)cc2)oc2cc(N(C)S(C)(=O)=O)c(-c3cnnc(-c4cc5ncccc5[nH]4)c3)cc12 [Compound 286] | 17 | 5 |
| CNC(=O)c1c(-c2ccc(F)cc2)oc2cc(N(C)S(C)(=O)=O)c(-c3cnnc(-c4nc5ccccc5s4)c3)cc12 [Compound 287] | 3.2 | 5.1 |
| CNC(=O)c1c(-c2ccc(F)cc2)oc2cc(N(C)S(C)(=O)=O)c(-c3cnnc(-c4[nH]c5ccccc5c4C)c3)cc12 [Compound 288] | 75 | 25 |
| CNC(=O)c1c(-c2ccc(F)cc2)oc2cc(N(C)S(C)(=O)=O)c(-c3cc(-c4[nH]c5ccccc5c4C)cnn3)cc12 [Compound 289] | 54 | 22 |
| CNC(=O)c1c(-c2ccc(F)cc2)oc2cc(N(C)S(C)(=O)=O)c(-c3cc(-c4cc5c(F)cccc5[nH]4)ncc3-c3cc4c(F)cccc4[nH]3)cc12 [Compound 290] | 9.8 | 10 |
| CNC(=O)c1c(-c2ccc(F)cc2)oc2cc(N(C)S(C)(=O)=O)c(-c3cc(N4Cc5cccc(F)c5C4)ncc3Cl)cc12 [Compound 291] | 4.8 | 8 |
| CNC(=O)c1c(-c2ccc(F)cc2)oc2cc(N(C)S(C)(=O)=O)c(-c3cc(-c4cc5c(F)cccc5[nH]4)ncc3Cl)cc12 [Compound 292] | 12 | 13 |
| CNC(=O)c1c(-c2ccc(F)cc2)oc2cc(N(C)S(C)(=O)=O)c(-c3cc(-c4cc5c(F)cccc5[nH]4)ncc3OC)cc12 [Compound 293] | 131 | 41 |
| CNC(=O)c1c(-c2ccc(F)cc2)oc2cc(N(C)S(C)(=O)=O)c(-c3cc(N4Cc5cccc(F)c5C4)ncc3OC)cc12 [Compound 294] | 54 | 22 |
